In publication PMC12217481, “Structure and mechanism of taniborbactam inhibition of the cefepime-hydrolyzing, partial R2-loop deletion Pseudomonas-derived cephalosporinase variant PDC-88” (Antimicrobial Agents and Chemotherapy, 2025):
In brackets after ≈: the same amount, converted by molar mass. Read-outs that look alike come from different tables or passages of the source.

Key:
[1] = system: isogenic E. coli strains expressing PDC R2-loop deletion variants (PDC-88 to PDC-92); experiment: MIC changes across the five isogenic E. coli R2-loop deletion strains; format: cell-based, Escherichia coli; details: R2-loop deletion variant strains
Description: (§1) Modal broth microdilution MICs (or median broth microdilution MICs where appropriate) were determined in accordance with Clinical and Laboratory Standards Institute (CLSI) M07 guidelines ([43]). Isogenic E. coli DH10B cells expressing the abovementioned plasmid-encoded PDC constructs were used. […] CLSI quality control strains Escherichia coli NCTC 13353, E. coli ATCC 35218, and Klebsiella pneumoniae ATCC 700603 were used during testing ([24]).

PDC-3 [2] = biological target: T1, PDC-3 (Pseudomonas aeruginosa, UniProt P24735, T105A); experiment: Thermal denaturation by circular dichroism, PDC-3; format: binding
T1 construct: The PDC-3 expression construct was created in a similar manner but starting with a previously described pBC SK(−) vector; made in house; host or cells: E. coli BL21-CodonPlus (DE3)-RP, pET24a(+)
Description: Competitive enzyme inhibitors can increase enzyme thermal stability as a result of binding to the active site.
Circular dichroism (CD) melting curve experiments were conducted using a J-815 spectropolarimeter (Jasco) and a Peltier effect temperature controller. Suprasil quartz cuvettes with a 0.1 cm path length (Hellma Analytics) were used in all experiments. […] Two-state behavior was observed, as indicated by identical curves at each wavelength. Equilibrium constants were calculated, and the melting temperature, Tm, was calculated from equilibrium denaturation data as previously described ([28]).

PDC-88 [3] = biological target: T2, PDC-88 (Pseudomonas aeruginosa, UniProt P24735, DEL316-317/G27D/G391A/T105A/V205L/V356I); format: binding
T2 construct: NdeI 5′-[…]-3ʹ and BamHI 5ʹ-[…]-3ʹ; His tag removed) (N); made in house; host or cells: E. coli BL21-CodonPlus (DE3)-RP, pET24a(+)
Description: Circular dichroism (CD) melting curve experiments were conducted using a J-815 spectropolarimeter (Jasco) and a Peltier effect temperature controller. Suprasil quartz cuvettes with a 0.1 cm path length (Hellma Analytics) were used in all experiments. […] Equilibrium constants were calculated, and the melting temperature, Tm, was calculated from equilibrium denaturation data as previously described ([28]).

[4] = system: E. coli DH10B/pTU501 (vector); experiment: Broth microdilution MIC, isogenic E. coli empty vector control; format: cell-based; details: Escherichia coli
Description: (§2) Genetic constructs used for minimum inhibitory concentration (MIC) testing were designed by Venatorx Pharmaceuticals and codon-optimized for use in E. coli and synthesized by Twist Bioscience as described previously ([9]). […] DH10B cells expressing an empty pET24a(+) vector (Novagen) were also grown, and the plasmid purified. Both pCR4-TOPO-PDC-88 and empty pET24a(+) were cut with BamHI and NdeI, the digests run on low-melting point agarose gels, and the bands of interest excised and ligated to yield a PDC-88 expressing pET24a(+) construct with the His tag removed. The PDC-3 expression construct was created in a similar manner but starting with a previously described pBC SK(−) vector ([42]). The final plasmids were grown in E. coli DH10B cells and purified.
as §1

[5] = system: E. coli DH10B/pTU606 (PDC-1); experiment: Broth microdilution MIC, isogenic E. coli expressing PDC-1; format: cell-based; details: Escherichia coli
Description: as §2, §1

[6] = system: E. coli DH10B/pTU609 (PDC-3); experiment: Broth microdilution MIC, isogenic E. coli expressing PDC-3; format: cell-based; details: Escherichia coli
Description: as §2, §1

[7] = system: E. coli DH10B/pTU625 (PDC-88); experiment: Broth microdilution MIC, isogenic E. coli expressing PDC-88; format: cell-based, Escherichia coli; details: Escherichia coli
Description: as §2, §1

[8] = system: E. coli DH10B/pTU626 (PDC-89); experiment: Broth microdilution MIC, isogenic E. coli expressing PDC-89; format: cell-based; details: Escherichia coli
Description: as §2, §1

[9] = system: E. coli DH10B/pTU627 (PDC-90); experiment: Broth microdilution MIC, isogenic E. coli expressing PDC-90; format: cell-based; details: Escherichia coli
Description: as §2, §1

[10] = system: E. coli DH10B/pTU628 (PDC-91); experiment: Broth microdilution MIC, isogenic E. coli expressing PDC-91; format: cell-based; details: Escherichia coli
Description: as §2, §1

[11] = system: E. coli DH10B/pTU629 (PDC-92); experiment: Broth microdilution MIC, isogenic E. coli expressing PDC-92; format: cell-based; details: Escherichia coli
Description: as §2, §1

[12] = system: K. pneumoniae ATCC 700603; experiment: Broth microdilution MIC, CLSI quality control strain; format: cell-based; details: Klebsiella pneumoniae
Description: as §1

PDC-88 [13] = experiment: Spectrophotometric β-lactam hydrolysis (progress curves, steady-state kinetics) by PDC-88; format: biochemical, Pseudomonas aeruginosa; details: over 900 s
Description: In order to determine the impact of the PDC-88 variant on hydrolysis, we determined hydrolysis progress curves for PDC-3, PDC-88, and a strongly hydrolyzing comparator (NDM-1 or PER-2) for cefepime (FEP, Fig. 3A), ceftazidime (CAZ, Fig. 3B), ceftolozane (TOL, Fig. 3C), and aztreonam (ATM, Fig. 3D).
β-Lactamase kinetic and inhibitor constants were determined using an Agilent 8453 UV-Visible Spectrophotometer to record progress curves and determine initial rates and other kinetic parameters as appropriate. Reactions were carried out in 1× phosphate-buffered saline (PBS) (pH 7.4) at room temperature in a 0.2 cm path-length quartz cuvette (Hellma Analytics). Reads were taken every 10 s to minimize UV-mediated background hydrolysis.
The extinction coefficients used were: nitrocefin, Δε482 = 17,400 M^−1 cm^−1, and cefepime, Δε260 = −10,000 M^−1 cm^−1.
The kinetic constants KM and Vmax were determined using a nonlinear least-squares regression of the data to the Henri-Michaelis-Menten equation (equation 1) in Origin Version 2020b (OriginLab, Northampton, MA), where v is the velocity of the reaction; Vmax is the theoretical maximum velocity; KM is the Michaelis constant; and [S] is the substrate concentration: […]

PDC-3 [14] = biological target: T1, PDC-3; experiment: Timed ESI-MS of acyl-enzyme formation, PDC-3; format: biochemical; details: timed ESI-MS, 1 to 30 min (ATM to 60 min)
Description: (§3) Timed ESI-MS experiments allow tracking of the reaction over time and determination of product modification, enabling the elucidation of mechanistic detail. Time courses were collected for both PDC-3 and PDC-88 with FEP (Fig. 4), CAZ (Fig. S1), TOL (Fig. S2), and ATM (Fig. S3). Substrate modification (here, loss of the R2 group) was determined based on differences between masses of apo and acyl-enzyme peaks (Fig. S4). […] Based on the differences in mass between the apo enzyme peaks, the acyl-enzyme peaks, and the molecular masses of each substrate, the mass of the adducts was determined and used to predict any portion of the substrate molecule that might be lost during the reaction (Fig. S4). As expected ([26][–][28]), all three cephalosporin antibiotics (FEP, CAZ, and TOL) lost their R2 groups during the reaction, while ATM (the sole monobactam) maintained its initial mass.
(§4) Five micrograms of PDC-3 or PDC-88 was incubated at the indicated molar ratio (1:2 to 1:100 PDC:β-lactam) in a total volume of 20 µL in 1× PBS at pH 7.4 at room temperature for the duration of the indicated time points. Reactions were quenched with the addition of 10 µL acetonitrile and added to 1 mL of 0.1% formic acid in water.
(§5) Data were collected using a Waters Synapt G2-Si quadrupole time-of-flight (Q-TOF) mass spectrometer and Waters Acquity UPLC BEH C18 1.7 µm column (2.1 by 100 mm). MassLynx V4.1 was used to deconvolute protein peaks. The tune settings for each sample were as follows: capillary voltage of 3.5 kV, sampling cone voltage of 35 V, source offset of 35 V, source temperature of 100°C, desolvation temperature of 500°C, cone gas flow rate of 100 L/h, desolvation gas flow rate of 800 L/h, and nebulizer bar at 6.0. Mobile phase A was 0.1% formic acid in water. Mobile phase B was 0.1% formic acid in acetonitrile. The mass accuracy of this system is ±5 Da.

PDC-88 [15] = biological target: T2, PDC-88; experiment: Timed ESI-MS of acyl-enzyme formation, PDC-88; format: biochemical; details: timed ESI-MS, 1 to 30 min (ATM to 60 min)
Description: as §3, §4, §5

`C[C@]1(Cn2ccnn2)[C@H](C(=O)O)N2C(=O)C[C@H]2S1(=O)=O` [TZB, tazobactam] was tested. Which “decrease of FEP MIC of variants by inhibitor” value ([1]; inhibitor at constant 4 µg/mL with FEP) did it give?
Its value is “two- to fourfold”.

And the “restoration of FEP activity / susceptibility by inhibitor” value ([1]; inhibitor at constant 4 µg/mL)?
Its value is “failed to restore susceptibility for any of the variants”.

What about the “increase of Tm upon addition of inhibitor” value (PDC-3 [2]; PDC-3) of the same molecule?
Its value is 1 °C.

What about the Tm (PDC-3 [2]; PDC-3 with inhibitor, circular dichroism, PDC-3 alone 52°C) of the same molecule?
Its Tm is 53 °C.

And the “increase of Tm upon addition of inhibitor” value (PDC-88 [3]; PDC-88)?
Its value is 1 °C.

And the Tm (PDC-88 [3]; PDC-88 with inhibitor, circular dichroism, PDC-88 alone 53°C)?
Its Tm is 54 °C.

What does the source list for `CC(C)(O/N=C(\C(=O)N[C@@H]1C(=O)N2C(C(=O)[O-])=C(C[n+]3ccccc3)CS[C@H]12)c1csc(N)n1)C(=O)O` [CAZ, ceftazidime]?
MIC ([4]; read-out: MIC CAZ AVI): 0.5 µg/mL (≈ 0.915 µM); MIC ([4]; read-out: MIC CAZ Alone): 0.5 µg/mL (≈ 0.915 µM); MIC ([5]; read-out: MIC CAZ AVI): 1 µg/mL (≈ 1.83 µM); MIC ([5]; E. coli DH10B/pTU606 (PDC-1), read-out: MIC CAZ Alone): 64 µg/mL (≈ 117 µM); MIC ([6]; read-out: MIC CAZ AVI): 1 µg/mL (≈ 1.83 µM); MIC ([6]; E. coli DH10B/pTU609 (PDC-3), read-out: MIC CAZ Alone): 64 µg/mL (≈ 117 µM); MIC ([7]; read-out: MIC CAZ AVI): 1 µg/mL (≈ 1.83 µM); MIC ([7]; E. coli DH10B/pTU625 (PDC-88), read-out: MIC CAZ Alone): 128 µg/mL (≈ 234 µM); MIC ([8]; read-out: MIC CAZ AVI): 1 µg/mL (≈ 1.83 µM); MIC ([8]; E. coli DH10B/pTU626 (PDC-89), read-out: MIC CAZ Alone): 128 µg/mL (≈ 234 µM); MIC ([9]; read-out: MIC CAZ AVI): 2 µg/mL (≈ 3.66 µM); MIC ([9]; E. coli DH10B/pTU627 (PDC-90), read-out: MIC CAZ Alone): > 128 µg/mL; MIC ([10]; read-out: MIC CAZ AVI): 1 µg/mL (≈ 1.83 µM); MIC ([10]; E. coli DH10B/pTU628 (PDC-91), read-out: MIC CAZ Alone): 128 µg/mL (≈ 234 µM); MIC ([11]; read-out: MIC CAZ AVI): 1 µg/mL (≈ 1.83 µM); MIC ([11]; E. coli DH10B/pTU629 (PDC-92), read-out: MIC CAZ Alone): > 128 µg/mL; MIC ([12]; ATCC700603, read-out: MIC CAZ AVI): 1 µg/mL (≈ 1.83 µM); MIC ([12]; ATCC700603, read-out: MIC CAZ Alone): 32 µg/mL (≈ 58.5 µM); difference between hydrolysis progress curves of PDC-3 and PDC-88 (PDC-88 [13]): no appreciable difference; acyl-enzyme complex formation and deacylation (PDC-3 [14]): formed acyl-enzyme complexes with CAZ that deacylated slowly; acyl-enzyme complex formation and deacylation (PDC-88 [15]): formed acyl-enzyme complexes with CAZ that deacylated slowly
